Source: patent publication US10039729B2, “Use of kukoamine A and kukoamine B” (Tianjin Chase Sun Pharmaceutical Co., Ltd., priority 2010, dated 2018)
Like-named read-outs stand apart in the source and are kept apart here.

Tested on: CpG DNA
Test: Affinity biosensor binding with immobilized CpG DNA
Conditions: for affinity / binding with CpG DNA: 4 μM solution; for affinity / binding with CpG DNA / affinity with CpG DNA: 5 μl loaded; for affinity with CpG DNA: 100 μM operating solution
Source text: Immobilization of lipid A and CpG DNA: Using Optically-Based Affinity Biosensors technology, Lipid A, the biologic active centres of LPS, and CpG DNA were respectively, immobilized on the reacting surfaces of cuvettes in an IAsys plus affinity biosensor according to the manufacturer's instructions of IAsys Affinity Sensor. The end of hydrophobic side chain of lipid A was immobilized on cuvette with hydrophobic surface, and the phosphate group (active group of lipid A) at the other end was floating and exposing to the outside, which act as target spot of binding with active constituents for disease treatment in traditional Chinese medicine. The active constituents in solution were binded to lipid A through electrostatic interaction. Biotinylated CpG DNA was immobilized on the surface of a biotin cuvette by linking to avidin, which had been coated on the surface of a biotin cuvette, and then the unlabeled group of CpG DNA was floating and exposing to the outside, which act as target spot of binding with active constituents for disease treatment in traditional Chinese medicine. The active constituents in solution were binded to CpG DNA through the electrostatic interaction and embodiment.
Detection of the aqueous herbal extract: The crude drugs of 114 traditional Chinese herbs were pulverized. 1 g of each powder was added with 10 ml distilled water, boiled at 100° C. for 1.5 h, centrifuged at 4000 rpm for 20 min, filtrated and then collected the supernatant. 5 μl of aqueous herbal extracts of each herb were used to detect their binding with lipid A or CpG DNA. Here are the steps: Binding reaction: 45 μl PBS was added in cuvette; then 5 μl samples was added in cuvette; liquid were draw-out after binding response reach a plateau; Dissociation: Cuvette was washed thrice in 50 μl PBS; liquid were draw-out after dissociation reach a plateau; Regeneration: Cuvette was washed thrice in 50 μl 0.1N HCl; liquid were draw-out after regeneration reach a plateau; Cuvette was washed thrice in 50 μl PBS; next cycle was started to detect new sample after curves back to baseline levels and smoothed. Data analysis was performed using the FASTplot software after detection finished.
2.1.1 Methods: 500 g Lycii cortex was added with 5 L distilled water, soaked for 24 h, boiled at 100 for 1 h, filtered by coarse filter paper, and centrifuged at 8000 rpm/min for 30 min, and the supernatant was collected and concentrated to 1 L under reduced pressure. The supernatant was loaded onto AB-8 Macroporous adsorption resin, and eluted with distilled water and gradient ethanol (10%, 20%, 40% and 100%) successively. The eluted fractions were separately collected, and lyophilized after concentrated under reduced pressure. Five constituents were obtained, and named CL-1 to -5 according to their elution order. CL constituents were separately dissolved in PBS to make 1.0 mg/ml solution, 5 μl of which were loaded. Their binding activity with lipid A and CpG DNA were detected according to methods of embodiment 1.
2.2.1 Methods: CL-4 lyophilization powder was diluted into ultrapure water to make 100 mg/ml solution, filtered by a 0.45 μm filter membrane, loaded onto D001 cationic exchange gel column, and eluted with distilled water, 0.3 M Na2HPO4 and 0.5 M Na2HPO4 successively. The eluted fractions were separately collected, and lyophilized after concentrated under reduced pressure. Three constituents were obtained, and named CL-4a, -4b and -4c according to their elution order. CL-4 constituents were separately dissolved in PBS to make 1.0 mg/ml solution, 5 μl of which were loaded. Their binding activity with lipid A and CpG DNA were detected according to methods of embodiment 1.
3.1 Methods: KA and KB were separately dissolved to make 100 μM operating solution; 5 μl of the solution was loaded; their binding activity with lipid A and CpG DNA were detected according to methods of embodiment 1. […]

Molecule | affinity / binding with CpG DNA | affinity with CpG DNA | Kd (KB 0.25-4 μM, IAsys FASTfit, read-out: dissociation equilibrium constant (KD) with CpG DNA) | Kd (with CpG DNA, read-out: dissociation equilibrium constant (KD = kass/kdiss))
polymyxin B [PMB, reference compound] | almost has no binding effects |  |  | 
O=C(CCc1ccc(O)c(O)c1)NCCCNCCCCNCCCNC(=O)CCc1ccc(O)c(O)c1 [KA, Kukoamine A] |  | high affinity |  | 
NCCCN(CCCCNCCCNC(=O)CCc1ccc(O)c(O)c1)C(=O)CCc1ccc(O)c(O)c1 [KB, Kukoamine B] | high affinity | high affinity | 660 nM | 664 nM
